In assay [1] the test system is CaCo-2. The experiment in a line: antioxidant activity test (DCFH-DA, oxidative stress by oxygenated water). Format: cell-based, human. The note with it: 0.15 mg/ml. Here is the method:
In order to verify the antioxidant power of the composition of the invention in a biological system similar to the intestinal epithelium (CaCo-2), the following tests were carried out: Evaluation of the antioxidant activity of the sample on human cells subject to chemical, progressive oxidative stress. The assessment of the antioxidant action is acquired from the quantification of the formation of free radicals in cells exposed to the sample and to oxidative stress. The antioxidant activity of the sample in analyses was evaluated by comparison with that of a safe hydrosoluble antioxidant, such as vitamin C. The protocol is based on the use of a fluorescent probe called 2′,7′-dichlorofluorescein diacetate (DCFH-DA), a non-fluorescent stable molecule that enters the cells, bonds to the membrane macromolecules, where it is hydrolysed from cytoplasmic esterases to give dichlorofluorescein (DCFH), a molecule that again is non-fluorescent. DCFH, in the presence of free radicals, is oxidised, forming a highly fluorescent molecule: DCF. The oxidative stress is induced via oxygenated water. The radicals produced constitutively from the cells with the addition of the sample, but without the addition of the oxidising agent, were also monitored as a negative control (absence of oxidant activity of the composition of the invention).

Assay [2] deals with duodenum. As to the kind of experiment: protective effect on intestinal mucosa in Ussing chamber, duodenum. The class given is in vivo, rat. The note with it: isolated (stress) rats, composition 500 mg/kg, dexamethasone 1 mg/kg intragastrically, average ±SD. Here is the method: (§1) The experiment was conducted in order to verify the effects of the tested substances on the artificially damaged intestinal mucosa ex vivo (for example hydrochloric acid).
(§2) […] male Sprague Dawley rats weighing approximately 200-250 g were used for the test.
(§3) 4 groups of 8 rats A, B, C, D were formed, respectively containing untreated rats, rats treated with 1.0 ml saline solution intragastrically, rats treated with 1.0 ml (500 mg/kg of body weight) of composition of the invention intragastrically, and rats treated with 1.0 ml of dexamethasone (1 mg/kg of body weight) intragastrically.
(§4) The animals in groups A, B, C and D were deprived of food for 18 hours.
Four rats per group were anaesthetised 30 minutes after the above-indicated administration by means of intraperitoneal injection and were kept in a heated atmosphere.
A sample of the duodenum was then dissected from these rats and mounted between the two half-chambers of the Ussing chamber and damage was induced using hydrochloride (pH 8.0; pH 5.5). […]
(§5) The ddp in mV through the mucosal membrane was measured directly as well as the short-circuit current, and these were monitored for 15 minutes whilst the transmembrane resistance was calculated in ohm x cm^2 using Ohm's law. […]
(§6) The system was then stabilised for 10 minutes and the same parameters as indicated above were then measured for 15 minutes. […]

For assay [3], the system named is colitis induced by acetic acid. The experiment in a line: model of colitis induced by acetic acid in rats. The class given is in vivo, rat. The note with it: average ± SEM. As to the method:
To test in vivo the efficacy of the composition of the invention, said composition was formulated in capsules and was assessed in terms of its ability to protect the susceptibility of the intestinal mucosa to irritating stimuli. Based on the presumed mechanism of the product to act on the inflammatory component of IBS (supported only recently by the literature) by means of a local, indirect protective and anti-inflammatory action also stemming from mucoadhesion, an experimental model of inflammatory colitis, not specific for IBS, was selected.
The study was carried out on a model of colitis induced by acetic acid, as described by McPherson B R, Pfeiffer C J (1978) Experimental Production of Diffuse Colitis in Rats. Digestion;17:135-150; Mousavizadeh K, Rahimian R, Fakhfouri G, Aslani F S, Ghafourifar P. (2009) Anti-inflammatory effects of 5-HT receptor antagonist, tropisetron on experimental colitis in rats. Eur J Clin Invest.;39(5):375-83; Noronha-Blob L, Lowe V C, Muhlahauser R O, Burch R M. (1993) NPC 15669, an inhibitor of neutrophil recruitment, is efficacious in acetic acid-induced colitis in rats. Gastroenterology, 104:1021-9.
Each group was formed by 10 rats in accordance with the following schema • 1. Rats without colitis, treated with vehicle 10 ml/kg, (p.o.); • 2. Rats with colitis, treated with vehicle 10 ml/kg, (p.o.); • 3. Rats with colitis, treated with the composition of the invention, (p.o.); • 4. Rats with colitis, treated with dexamethasone, (p.o) as reference. Macroscopic and microscopic parameters were measured.
In particular, the macroscopic damage to the colon, the colon index (mg of colon/grams of rat) and the activity of myeloperoxidase, an enzyme contained in the intracellular azurophilic granules of the polymorphonuclear leukocytes (PMNs), which can therefore be used as an indicator of the accumulation of the migrated neutrophils in the tissues during an inflammatory process, are shown.
To verify the effectiveness of the use of the incense ingredient in the formulations, the same experiment of inflammatory colitis induced by acetic acid was carried out with a formulation devoid of incense (ABO-INT-10-2), which corresponds to the formulation Abo-INT 10 (general formulations on page 16), devoid of incense.

Assay [4] deals with ileum. As to the kind of experiment: protective effect on intestinal mucosa in Ussing chamber, ileum. Format: in vivo, rat. As to conditions: isolated (stress) rats, composition 500 mg/kg, dexamethasone 1 mg/kg intragastrically, average ±SD. As to the method:
as §1, §2, §3, §4
Four rats per group were then anaesthetised 50 minutes after the above-indicated administration by means of intraperitoneal injection and were kept in a heated atmosphere.
A sample of the ileum was then dissected from these rats and mounted between the two half-chambers of the Ussing chamber and damage was induced using hydrochloride (pH 8.0; pH 6.5). […]
as §5, §6

Where [5] appears, read: Table 1, rats with 4% acetic acid colitis, ABO/INT-10 1 g/kg, dexamethasone 1 mg/kg p.o.
Where [6] appears, read: Table 3, experiment with formulation devoid of incense, ABO/INT-10-2 1 g/kg, dexamethasone 1 mg/kg.
The mark [7] stands for this setting: Table 4, experiment with formulation devoid of incense, ABO/INT-10-2 1 g/kg, dexamethasone 1 mg/kg.

Each structure is given as a SMILES string.

Consider `O=C1O[C@H]([C@@H](O)CO)C(O)=C1O` [vitamin C], for which the “% reduction of free radicals” value in assay [1] (30 min) came to 38%; in assay [1] (60 min) it was 44.8%; in assay [1] (90 min), 48%; in assay [1] (120 min) it was 47%.
For `C[C@@H]1C[C@H]2[C@@H]3CCC4=CC(=O)C=C[C@]4(C)[C@@]3(F)[C@@H](O)C[C@]2(C)[C@@]1(O)C(=O)CO` [Dexamethasone, dexamethasone], in assay [2] (Krebs buffer at pH 5.5), the “average value of resistance of the duodenum after induction of damage” value was 48.0±12.7 ohm×cm^2. Also, in assay [2] (physiological pH Krebs buffer, 30 minutes), the “average value of resistance of the duodenum” value amounted to 50.4±13.9 ohm×cm^2. In addition, in assay [3] (setting [5]), the Faecal excretion number was 40.40 ± 8.035 and the “Faecal excretion weight” value amounted to 9.440 ± 1.790 g. Further, in assay [3] (Table 1, rats with 4% acetic acid colitis, final, ABO/INT-10 1 g/kg, dexamethasone 1 mg/kg p.o.), the “Body weight (g) Final” value was determined as 214.3 ± 4.177 g. This molecule also showed a Macroscopic damage in assay [3] (Table 2, colon, rats with 4% acetic acid colitis, composition 1 g/kg, dexamethasone 1 mg/kg p.o.) of 4.417 ± 1.052. Moreover, in assay [3] (Table 2, mg of colon/grams of rat, composition 1 g/kg, dexamethasone 1 mg/kg p.o.), the “Colon index” value is 6.041 ± 0.341 mg/g. For the same molecule, the “MPO (U/mg tissue)” value in assay [3] (Table 2, myeloperoxidase activity, after 24 hours, composition 1 g/kg, dexamethasone 1 mg/kg p.o.) worked out at 15.387 ± 6.136 U/mg tissue. Moreover, in assay [3] (setting [6]), the Defecations number amounted to 42.10 ± 9.011, the “Defecations weight” value is 9.44 ± 1.79 g and the “Weight variation (g)” value is listed as 2.167 ± 1.493°°** g. Moreover, in assay [3] (setting [7]), the “Colon index (mg/g)” value was 6.041 ± 0.341°** mg/g, the “MPO (U/mg tissue)” value was determined as 16.423 ± 5.9780°* U/mg tissue and the Macroscopic damage is 4.417 ± 1.052°°**. Besides, the “average value of resistance of the ileum after induction of damage” value in assay [4] (Krebs buffer at pH 6.5) stood at 39.7±8.1 ohm×cm^2. Further, the “average value of resistance of the ileum” value in assay [4] (physiological pH Krebs buffer, 50 minutes) was determined as 50.6±13.4 ohm×cm^2.

(Values after patent US11213559B2, “Formulation for treatment of irritable bowel disease” (ABOCA S.P.A. SOCIETA′ AGRICOLA, priority 2012, dated 2022).)
